According to patent US8481586B2, “Pyrrolo[2,3-a] carbazoles and use thereof as PIM kinase inhibitors” (Centre National de la Recherche Scientifique, priority 2008, dated 2013):

Assays:
PIM-1 = PIM-1 (Homo sapiens (Human), UniProt P11309); experiment: inhibition test on kinase PIM-1 (residual activity, IC50); assay type: biochemical; conditions: product at 10 μmol/L; Table 2; N.I. = not inhibitory; read-out: Percentage of residual activity PIM-1
Excerpt: (§1) MKK1, ERK 1, ERK 2, JNK1, JNK2, JNK3, p38a MAPK, p38b MAPK, p38g MAPK, p38s MAPK, ERK8, RSK1, RSK2, PDK1, PKBa, PKBb, SGK1, S6K1, PKA, ROCK2, PRK2, PKCa, PKC zeta, PKD1, MSK1, MNK1, MNK2, MAPKAP-K2, MAPKAP-K3, PRAK, CAMKKa, CAMKKb, CAMK1, SmMLCK, PHK, CHK1, CHK2, GSK3b, CDK2/cyclin A, PLK1, PLK1 (Okadaic acid), Aurora B, Aurora C, AMPK, MARK3, BRSK2, MELK, CK1, CK2, NEK2a, NEK6, NEK7, IKKb, PIM-1, PIM-2, PIM-3, SRPK1, MST2, EF2K, HIPK2, HIPK3, PAK-4, PAK5, PAK6, Src, Lck, CSK.
(§2) The results in terms of residual activity of the kinases after being placed in contact with the compounds of Examples 2, 3 and 5, at a concentration of 10 μM (10 μmol/L), are shown in Table 1 below.
(§3) The higher the residual activity of the kinase tested, the lower the inhibitory activity of the test compounds on the tested kinase.
(§4) The compounds according to the invention were then tested on the kinases PIM-1, PIM-2 and PIM-3.
(§5) The results in terms of percentage of residual activity after placing the compounds according to the invention in contact with each of the kinases PIM-1, PIM-2 and PIM-3 are given in Table 2 below.
(§6) The higher the residual activity, the lower the inhibitory activity of the test compounds.
(§7) The mean inhibitory concentrations (IC50) of certain preferred compounds of the invention were determined in the following manner: the IC50 values were measured after performing the inhibition tests on the kinases PIM-1, PIM-2 and PIM-3 at ten different concentrations for each test compound, and the IC50 value was determined from the dose-inhibition curves obtained.

PIM-3 = PIM-3 (Homo sapiens (Human), UniProt Q86V86); experiment: inhibition test on kinase PIM-3 (residual activity, IC50); assay type: biochemical; conditions: for remaining activity at 10 µM: product at 10 μmol/L, Table 2, N.I. = not inhibitory, read-out: Percentage of residual activity PIM-3
Excerpt: as §1, §2, §3, §4, §5, §6, §7

PIM-2 = PIM-2 (Homo sapiens (Human), UniProt Q9P1W9); experiment: inhibition test on kinase PIM-2 (residual activity, IC50); assay type: biochemical; conditions: product at 10 μmol/L, Table 2, N.I. = not inhibitory; for remaining activity at 10 µM: read-out: Percentage of residual activity PIM-2
Excerpt: as §1, §2, §3, §4, §5, §6, §7

Chain of PIM-1 (P11309 whole entry, species assumed): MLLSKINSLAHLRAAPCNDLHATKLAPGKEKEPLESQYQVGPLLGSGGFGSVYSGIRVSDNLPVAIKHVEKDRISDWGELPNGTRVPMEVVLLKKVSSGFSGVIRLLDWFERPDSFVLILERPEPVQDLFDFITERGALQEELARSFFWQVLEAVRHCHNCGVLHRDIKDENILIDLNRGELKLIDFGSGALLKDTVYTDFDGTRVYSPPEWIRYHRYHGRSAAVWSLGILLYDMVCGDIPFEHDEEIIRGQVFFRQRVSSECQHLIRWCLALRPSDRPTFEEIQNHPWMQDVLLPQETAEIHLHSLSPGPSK
Chain of PIM-2 (Q9P1W9 whole entry, species assumed): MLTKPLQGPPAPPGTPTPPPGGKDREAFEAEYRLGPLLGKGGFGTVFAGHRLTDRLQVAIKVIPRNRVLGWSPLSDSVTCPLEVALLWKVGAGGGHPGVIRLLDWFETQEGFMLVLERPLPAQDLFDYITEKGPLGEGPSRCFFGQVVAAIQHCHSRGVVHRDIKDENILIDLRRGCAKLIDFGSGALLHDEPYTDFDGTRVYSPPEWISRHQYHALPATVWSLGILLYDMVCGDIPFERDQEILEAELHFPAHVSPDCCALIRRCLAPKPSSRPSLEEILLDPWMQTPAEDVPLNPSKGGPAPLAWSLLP

| SMILES | remaining activity at 10 µM (PIM-1) | remaining activity at 10 µM (PIM-3) | remaining activity at 10 µM (PIM-2) | IC50 (PIM-3; ten concentrations, dose-inhibition curve) | Percentage of residual activity PIM-2 (PIM-2) | melting point |
| --- | --- | --- | --- | --- | --- | --- |
| OCc1c[nH]c2c1ccc1c3ccccc3[nH]c12 [Example 4, (1,10-dihydropyrrolo[2,3-a]carbazol-3-yl)methanol] | 28% | 18% | 47% | – | – | – |
| OCCc1c[nH]c2c1ccc1c3ccccc3[nH]c12 [Example 9, 2-(1,10-dihydropyrrolo[2,3-a]carbazol-3-yl)ethanol] | 35% | 21% | 50% | – | – | – |
| COc1cccc(-c2ccc3[nH]c4c(ccc5c(C=O)c[nH]c54)c3c2)c1 [Example 36, 7-(3-methoxyphenyl)-1,10-dihydropyrrolo[2,3-a]-carbazole-3-carbaldehyde] | 17% | 12% | 31% | – | – | – |
| O=C(c1c[nH]c2c1ccc1c3ccccc3[nH]c12)C(F)(F)F [Example 6, 1-(1,10-dihydropyrrolo[2,3-a]carbazol-3-yl)-2,2,2-trifluoroethanone] | 20% | 7% | 30% | 170 nM | – | – |
| N#Cc1ccc2[nH]c3c(ccc4c(C=O)c[nH]c43)c2c1 [Example 49, 3-formyl-1,10-dihydropyrrolo[2,3-a]carbazole-7-carbonitrile] | 92% | 14% | – | – | N.I. | – |
| O=Cc1c[nH]c2c1ccc1c3cc(-c4ccccc4)ccc3[nH]c12 [Example 38, 7-phenyl-1,10-dihydropyrrolo[2,3-a]carbazole-3-carbaldehyde] | 16% | 15% | 53% | – | – | – |
| O=Cc1c[nH]c2c1ccc1c3cc(-c4ccc(C(F)(F)F)cc4)ccc3[nH]c12 [Example 41, 7-(4-trifluoromethylphenyl)-1,10-dihydropyrrolo-[2,3-a]carbazole-3-carbaldehyde] | 28% | 23% | 52% | – | – | – |
| O=Cc1c[nH]c2c1ccc1c3cc(-c4ccc(-c5ccccc5)cc4)ccc3[nH]c12 [Example 37, 7-(4-biphenyl)-1,10-dihydropyrrolo[2,3-a]carbazole-3-carbaldehyde] | 39% | 48% | 70% | – | – | – |
| Brc1cccc2c1[nH]c1c2ccc2cc[nH]c21 [Example 27, 9-bromo-1,10-dihydropyrrolo[2,3-a]carbazole] | 90% | 43% | – | – | N.I. | – |
| O=Cc1c[nH]c2c1ccc1c3ccc(Br)cc3[nH]c12 [Example 43, 8-bromo-1,10-dihydropyrrolo[2,3-a]carbazole-3-carbaldehyde] | 44% | 15% | 39% | – | – | > 250 °C |
| Brc1cccc2[nH]c3c(ccc4cc[nH]c43)c12 [Example 26, 6-bromo-1,10-dihydropyrrolo[2,3-a]carbazole] | 8% | 11% | 37% | – | – | – |
